# From PubChem BioAssay (NCI)
# Values joined by “and” are separate entries in the source; they are usually repeats but may differ in a detail not shown here. Equal entries are not always repeated.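 Cells were grown in 96-well plates and exposed to each compound for 48 hours at five concentrations; endpoints were interpolated linearly between bracketing concentrations, or set to the highest concentration if not reached. GI50 = concentration required for 50% inhibition of growth. TGI is the concentration that stops growth completely.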
# How the values were obtained:
# Assay in all cases: DTP human tumour cell line panel, 48 h
# HCC-2998 colon = system: HCC-2998 colon
# HCT-116 colon = system: HCT-116 colon
# K-562 leukemia = system: K-562 leukemia
# KM12 colon = system: KM12 colon
# MDA-MB-231 breast = system: MDA-MB-231 breast
# OVCAR-5 ovarian = system: OVCAR-5 ovarian
# SF-268 CNS = system: SF-268 CNS
# SK-MEL-2 melanoma = system: SK-MEL-2 melanoma
# UO-31 renal = system: UO-31 renal
# HT29 colon = system: HT29 colon
Compound,GI50 (HCC-2998 colon),TGI (HCC-2998 colon),GI50 (HCT-116 colon),TGI (HCT-116 colon),GI50 (K-562 leukemia),TGI (K-562 leukemia) [µM],GI50 (KM12 colon),TGI (KM12 colon),GI50 (MDA-MB-231 breast),TGI (MDA-MB-231 breast),GI50 (OVCAR-5 ovarian),TGI (OVCAR-5 ovarian) [µM],GI50 (SF-268 CNS),TGI (SF-268 CNS),GI50 (SK-MEL-2 melanoma),TGI (SK-MEL-2 melanoma),GI50 (UO-31 renal),TGI (UO-31 renal),GI50 (HT29 colon),TGI (HT29 colon)
O=C1/C(=C/c2ccc([N+](=O)[O-])s2)Oc2ccc(Br)cc21,443 nM,1.68 µM,202 nM,0.41 µM,135 nM,0.833,247 nM,0.623 µM,201 nM,0.436 µM,1.07 µM,2.47,256 nM,0.684 µM,0.231 µM,0.509 µM,166 nM,0.346 µM,,
CCOC(=O)c1c(C)n(Cc2ccc(Cl)cc2Cl)c2c1cc(O)c1[nH]c(Cc3ccccc3)nc12,2410 nM,5.23 µM,2180 nM,4.76 µM,2940 nM,10.7,2050 nM,4.62 µM,3610 nM,12.5 µM,3.65 µM,9.36,2590 nM,6.21 µM,9.39 µM,37.2 µM,3750 nM,16.6 µM,3.89 µM,17.3 µM
O=C1/C(=C/c2ccccc2)CN(C(=O)/C=C/c2ccccc2)C/C1=C\c1ccccc1,,14.2 µM,,2.02 µM,,> 43.3,,12.2 µM,,10.9 µM,,45.2,,38.7 µM,,52 µM,,20.6 µM,,11.8 µM
CC(C)(C)c1ccc(OCCCCCCCN2CCNCC2)cc1,1700 nM,3.22 µM,,,1560 nM,3.81,1850 nM,3.6 µM,1310 nM,3.02 µM,,,2360 nM,6.65 µM,1.74 µM,3.47 µM,1430 nM,3.31 µM,,
COc1cccc(C2=C(c3cn(C)c4c(C)cccc34)C(=O)NC2=O)c1,> 25000 nM,> 25 µM,> 18000 nM,> 25 µM,12800 nM,> 25,> 21000 nM,> 25 µM,24500 nM,> 25 µM,> 25 µM,> 25,> 25000 nM,> 25 µM,> 16.9 µM,> 25 µM,> 20200 nM,> 25 µM,> 19.6 µM,> 25 µM
N#C/C(=C\c1ccccn1)c1nc2ccccc2o1,25100 nM,50.2 µM,18900 nM,40.3 µM,28600 nM,> 100,26800 nM,> 100 µM,27900 nM,> 100 µM,31.9 µM,> 100,31300 nM,> 100 µM,29.1 µM,> 100 µM,18800 nM,59.7 µM,30.6 µM,95.2 µM
Cc1cc(N)c2cc(NC(=O)/C=C\c3ccccc3Cl)ccc2n1,485 nM,1.74 µM,208 nM,0.416 µM,416 nM,1.48,767 nM,2.11 µM,1210 nM,2.47 µM,1.33 µM,2.69,1440 nM,2.97 µM,1.83 µM,3.34 µM,1780 nM,3.22 µM,0.41 µM,1.5 µM
O=C1c2ccccc2-n2c1nc1ccc([N+](=O)[O-])cc1c2=O,,> 100 µM,,> 100 µM,,> 100,,> 100 µM,,> 100 µM,,> 100,,> 100 µM,,,,> 100 µM,,
CCc1n(Cc2ccc3ccccc3c2)cc[n+]1Cc1ccc2ccccc2c1,518 nM,1.85 µM,865 nM,2.16 µM,404 nM,2.27,549 nM,1.89 µM,392 nM,1.44 µM,1.2 µM,2.75,817 nM,2.42 µM,0.534 µM,2.14 µM,2220 nM,8.86 µM,0.563 µM,2.23 µM
CCOC(=O)c1nc2sc(Cl)cn2c1/C=N/N=C(N)N,,,18000 nM,40.8 µM,17000 nM,53.6,18300 nM,36.6 µM,14300 nM,37.2 µM,20.7 µM,49.5,32000 nM,> 100 µM,36.5 µM,> 87.2 µM,18300 nM,35.6 µM,28.7 µM,> 86.4 µM
O=C1CC[C@@H]2[C@H]3CCC(=O)c4c3c(c3cccc(O)c3c4O)O[C@@]23C(=O)c2cccc(O)c2C(O)=C13,,,> 100000 nM,> 100 µM,> 100000 nM,> 100,> 100000 nM,> 100 µM,> 100000 nM,> 100 µM,> 100 µM,> 100,> 100000 nM,> 100 µM,74.4 µM,> 100 µM,> 100000 nM,> 100 µM,> 100 µM,> 100 µM
O=c1oc2cc(O)ccc2cc1-c1nc2ccccc2o1,,> 100 µM,,> 100 µM,,> 100,,93 µM,,> 100 µM,,> 100,,> 100 µM,,> 100 µM,,80.2 µM,,> 100 µM
Cc1nc2sc(C(=O)Nc3cccc4c3OCCO4)c(N)c2cc1C(C)O (configuration not stated),13700 nM,> 100 µM,5570 nM,> 100 µM,1370 nM,> 100,3850 nM,> 100 µM,36300 nM,> 100 µM,43.2 µM,> 100,> 100000 nM,> 100 µM,,,7300 nM,> 100 µM,2.62 µM,> 100 µM
C=CC(=O)N1CCN(c2nc(OC[C@@H]3CCCN3C)nc3c(F)c(-c4nc(N)cc(C)c4C(F)(F)F)c(Cl)cc23)[C@@H](C)C1,1250 nM,2.57 µM,2040 nM,5.39 µM,2470 nM,8.92,2110 nM,4.56 µM,1740 nM,3.27 µM,9.68 µM,21.7,1590 nM,3.19 µM,2.05 µM,4.34 µM,1920 nM,5.01 µM,2.61 µM,9.8 µM
CN(C)Cc1nsc(N(C)C)n1,,,,> 100 µM,,> 100,,> 100 µM,,> 100 µM,,> 100,,> 100 µM,,> 100 µM,,> 100 µM,,> 100 µM
Cc1nc2ccccc2c(/C=C/c2ccc(C(F)(F)F)cc2)c1C(=O)/C=C/c1ccccc1,1570 nM,3.29 µM,521 nM,2.03 µM,,,,,1740 nM,3.65 µM,1.86 µM,3.35,,,1.76 µM,3.64 µM,1080 nM,2.27 µM,1.04 µM,6.05 µM
CCOC(=O)c1ccc(N[C@@H]2c3cc4c(cc3C(c3cc(OC)c(O)c(OC)c3)[C@H]3C(=O)OCC32)OCO4)cc1 (some centres not stated),868 nM,3.69 µM,835 nM,10.5 µM,662 nM and 1440 nM,27.2,875 nM,5.29 µM,,4.76 µM,0.646 µM,6.16,394 nM,15.7 µM,,6.27 µM,394 nM,0.982 µM and 3.4 µM,0.949 µM,6.92 µM
CC(=O)OC1C(C)OC(Oc2c(-c3ccc(O)cc3)oc3cc(O)cc(O)c3c2=O)C(O)C1OC(C)=O (configuration not stated),21900 nM,55.2 µM,35100 nM,> 100 µM,30800 nM,> 100,29400 nM,> 83.8 µM,21100 nM,63.7 µM,> 100 µM,> 100,27000 nM,> 89.5 µM,21.1 µM,49.3 µM,39300 nM,> 100 µM,31.4 µM,> 91.3 µM
CC1=C(C(=O)Nc2cc(F)c(F)cc2F)C(c2ccc(N(C)C)cc2)C(C(=O)Nc2cc(F)c(F)cc2F)=C(C)N1,,> 83 µM,30400 nM,> 100 µM,,> 100,,> 75.5 µM,19000 nM,> 100 µM,,> 100,,> 100 µM,,> 100 µM,,> 84.4 µM,,> 91.3 µM
COc1cccc2c1C(=O)c1c(O)c3c(c(O)c1C2=O)C[C@@](O)(C(=O)CO)C[C@@H]3OC1CC2C(OCN2CN2COC3C(C)OC(O[C@H]4C[C@](O)(C(=O)CO)Cc5c(O)c6c(c(O)c54)C(=O)c4c(OC)cccc4C6=O)CC32)C(C)O1 (some centres not stated),13.8 nM,0.0441 µM,5.64 nM,> 0.39 µM,4.02 nM,,13.9 nM,0.0609 µM,15.6 nM,0.072 µM,0.0304 µM,> 0.264,2.58 nM,0.0469 µM,0.0179 µM,0.0591 µM,3.04 nM,0.0283 µM,0.00717 µM,0.115 µM
CN(COC(=O)C(C)(C)C)c1nc(N(C)COC(=O)C(C)(C)C)nc(N(C)COC(=O)C(C)(C)C)n1,,> 100 µM,,39.3 µM,,> 100,,> 100 µM,,68.9 µM,,> 100,,> 100 µM,,> 100 µM,,> 100 µM,,> 100 µM
CCOC(=O)CCC(NC(=O)c1ccc(Oc2nc3cc(N)cc(N)c3nc2-c2ccccc2)cc1)C(=O)OCC (configuration not stated),,,15100 nM,28.7 µM,,,27400 nM,> 100 µM,11300 nM,32.6 µM,96.8 µM,> 100,40700 nM,> 100 µM,40.7 µM,> 100 µM,48700 nM,> 100 µM,,
Nc1ncnc2c1ncn2C1OC(F)(COS(N)(=O)=O)C(O)C1O (configuration not stated),> 100000 nM,> 100 µM,> 100000 nM,> 100 µM,> 100000 nM,> 100,> 100000 nM,> 100 µM,> 100000 nM,> 100 µM,> 100 µM,> 100,> 100000 nM,> 100 µM,> 100 µM,> 100 µM,> 100000 nM,> 100 µM,> 100 µM,> 100 µM
Cc1ccc(-c2csc3ncnc(Nc4cccc(O)c4)c23)cc1,17200 nM,34.1 µM,20000 nM,39.6 µM,5600 nM,> 100,25700 nM,69 µM,> 100000 nM,> 100 µM,25.5 µM,69.6,> 100000 nM,> 100 µM,22.4 µM,62.4 µM,35500 nM,> 100 µM,39.7 µM,> 100 µM
Cc1ccc(S(=O)(=O)NC(=O)Nc2ncn[nH]2)cc1,,> 100 µM,,> 100 µM,,> 100,,> 100 µM,,> 100 µM,,> 100,,> 100 µM,,> 100 µM,,> 100 µM,,> 100 µM
O=C(Nc1ccc(Br)cc1)c1cc(Br)ccc1O,2360 nM and 3460 nM,7.67 µM and 35.7 µM,354 nM and 1450 nM,1.56 µM and 3.56 µM,437 nM and 419 nM,,1670 nM and 2000 nM,4.99 µM and 5.31 µM,622 nM and 1430 nM,3.22 µM and 7.06 µM,1.75 µM and 4.79 µM,> 92.4,489 nM and 2050 nM,26.6 µM and 13.4 µM,0.278 µM and 1.74 µM,1.25 µM and 5 µM,247 nM and 767 nM,2.16 µM and 9.78 µM,3.11 µM and 3.38 µM,16 µM and 39 µM
COc1ccc(C(=O)c2no[n+]([O-])c2C(=O)c2ccc(OC)cc2)cc1,17500 nM,31.6 µM,1690 nM,3.05 µM,2360 nM,7.17,8910 nM,22.4 µM,2770 nM,8.16 µM,10.6 µM,25.7,3110 nM,7.98 µM,6.59 µM,23.1 µM,588 nM,1.17 µM,2.32 µM,
CN(C)Cc1c[nH]c2nc[nH]c(=O)c12,,,,51.5 µM,,44.4,,> 100 µM,,> 100 µM,,> 100,,> 100 µM,,> 100 µM,,> 100 µM,,> 100 µM
